Data from publication PMC4770092, “Subnanometre enzyme mechanics probed by single-molecule force spectroscopy” (Nature Communications, 2016).

Assays:
AdK 42-144 [1] = target: T1, AdK 42-144 (Aquifex aeolicus, UniProt O66490, INS42C/INS144C); test: single-molecule optical tweezers, AP5A competition assay; assay type: binding; settings: 50 mM Tris pH 7.5, 200 mM KCl, about 10 pN load
T1 construct: full length, Cys inserted between 42/43 and 144/145; N-terminal spacer MAAKGELSG, C-terminal spacer and His6 kept; synthetic gene in pET11a, E. coli BL21(DE3); DNA handles on Cys in trap assay

AdK 42-144 [2] = target: T1, AdK 42-144; test: single-molecule optical tweezers, lid closing/opening; assay type: binding; settings: 50 mM Tris pH 7.5, 200 mM KCl; bisubstrate inhibitor

T1 sequence (O66490 other isoform, or with tags, fused parts or gaps INS42C/INS144C): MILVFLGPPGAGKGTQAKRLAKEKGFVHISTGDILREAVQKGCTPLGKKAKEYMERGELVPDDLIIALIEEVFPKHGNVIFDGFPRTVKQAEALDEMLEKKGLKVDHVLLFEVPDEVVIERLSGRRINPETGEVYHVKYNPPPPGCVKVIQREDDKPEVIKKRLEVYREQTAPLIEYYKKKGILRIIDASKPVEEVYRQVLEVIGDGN

Nc1ncnc2c1ncn2[C@@H]1O[C@H](COP(=O)(O)OP(=O)(O)O)[C@@H](O)[C@H]1O [ADP]
KD (AdK 42-144 [1]; Mg-ADP, AP5A competitor): nucleotides ADP (yellow), Mg-ADP (green) and Mg-ATP (blue)

Nc1ncnc2c1ncn2[C@@H]1O[C@H](COP(=O)(O)OP(=O)(O)OP(=O)(O)OP(=O)(O)OC[C@H]2O[C@@H](n3cnc4c(N)ncnc43)[C@H](O)[C@@H]2O)[C@@H](O)[C@H]1O [AP4A]
single-molecule optical tweezers, lid closing/opening (AdK 42-144 [2]): We found that AP4A induces full closing of AdK indistinguishable from AP5A

Nc1ncnc2c1ncn2[C@@H]1O[C@H](COP(=O)(O)OP(=O)(O)OP(=O)(O)OP(=O)(O)OP(=O)(O)OP(=O)(O)OC[C@H]2O[C@@H](n3cnc4c(N)ncnc43)[C@H](O)[C@@H]2O)[C@@H](O)[C@H]1O [AP6A]
single-molecule optical tweezers, lid closing/opening (AdK 42-144 [2]): AP6A binds with the same affinity as AP5A despite its significantly reduced closing distance

Nc1ncnc2c1ncn2[C@@H]1O[C@H](COP(=O)(O)OP(=O)(O)OP(=O)(O)O)[C@@H](O)[C@H]1O [ATP]
KD (AdK 42-144 [1]; Mg-ATP, 1 μM AP5A competitor): nucleotides ADP (yellow), Mg-ADP (green) and Mg-ATP (blue)
